Reference: patent EP0674651B1, “SUBSTITUTED 6-AZAANDROSTENONES” (priority 1992, dated 1994)
Like-named read-outs stand apart in the source and are kept apart here.

What was measured:
[1] = biological target: Rat Prostatic 5α-reductase; assay: 5α-reductase in vitro inhibitory activity, rat prostatic; settings: read-out: IC50 Rat Prostatic; microsomes derived from prostate tissue from the rat
Procedure: (§1) Microsomes were prepared by homogenization of the tissue or cells, followed by differential centrifugation of the homogenate. […] Corresponding incubations were carried out with no test compound as a control study.
The percentage of conversion of testosterone to DHT in the presence of test compounds compared to the corresponding conversion in the control study was estimated using high pressure liquid chromatography (HPLC) with radiochemical detection.

[2] = biological target: T1, human type 2 5α-reductase (Homo sapiens, UniProt P31213); assay: 5α-reductase in vitro inhibitory activity, human type 2
T1 sequence (P31213 1-254): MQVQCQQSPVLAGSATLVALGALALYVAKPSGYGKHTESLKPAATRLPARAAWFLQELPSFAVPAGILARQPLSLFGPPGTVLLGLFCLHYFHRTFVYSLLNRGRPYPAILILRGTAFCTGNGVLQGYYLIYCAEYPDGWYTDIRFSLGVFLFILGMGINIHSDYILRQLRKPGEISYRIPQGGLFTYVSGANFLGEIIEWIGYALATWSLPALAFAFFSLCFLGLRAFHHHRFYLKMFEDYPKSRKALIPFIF

[3] = biological target: T2, human type 1 5α-reductase (Homo sapiens, UniProt P18405); assay: 5α-reductase in vitro inhibitory activity, human type 1
T2 sequence (P18405 1-259): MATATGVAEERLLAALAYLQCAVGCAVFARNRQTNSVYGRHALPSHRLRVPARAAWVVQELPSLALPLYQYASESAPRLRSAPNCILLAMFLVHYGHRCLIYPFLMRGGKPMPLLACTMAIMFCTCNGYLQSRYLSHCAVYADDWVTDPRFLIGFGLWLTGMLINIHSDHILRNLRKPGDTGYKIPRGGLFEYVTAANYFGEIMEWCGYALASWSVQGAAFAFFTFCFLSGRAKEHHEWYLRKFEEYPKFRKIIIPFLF
Procedure: as §1
For type 2 IC50 measurements, assay components except testosterone were preincubated for 20 minutes at pH 6.0, and following the addition of 8nM testosterone the assays were allowed to proceed for 20-40 minutes. The percentage of conversion of testosterone to DHT in the presence of test compounds compared to the corresponding conversion in the control study was estimated using high pressure liquid chromatography (HPLC) with radiochemical detection.

[4] = read-out: IC50 Human Type 2, microsomes, preincubated 20 minutes at pH 6.0, 8nM testosterone, 1 mM NADPH
[5] = read-out: IC50 Human Type 1, microsomes of recombinant baculovirus infected SF9 cells, preincubated 10 minutes at pH 7.0, 100nM testosterone, 1 mM NADPH

Row | IC50 [1] [nM] | IC50 [2] [nM] | IC50 [3] [nM] | Compound | IC50 [2, 4] [nM] | IC50 [3, 5] [nM]
1 | < 10 | < 10 | 10 to 100 | C[C@]12CC[C@H]3[C@@H](CNC4=CC(=O)CC[C@@]43C)[C@@H]1CC[C@@H]2C(=O)NCC1CCCCC1 [Compound 31, 17β-methylenecyclohexyl-carbamoyl-6-azaandrost-4-en-3-one] | – | –
2 | > 100 | < 10 | < 10 | C[C@]12CC[C@H]3[C@@H](CNC4=CC(=O)CC[C@@]43C)[C@@H]1CC[C@@H]2C(=O)CC(c1ccccc1)c1ccccc1 [Compound 43, 17β-(1-Oxo-3.3-diphenylpropyl)-6-azaandrost-4-en-3-one] | – | –
3 | > 100 | 10 to 100 | > 100 | CC(C)(CO)NC(=O)[C@H]1CC[C@H]2[C@@H]3CNC4=CC(=O)CC[C@]4(C)[C@H]3CC[C@]12C [Compound 21, 17β-N-(1,1-Dimethyl)-2-hydroxyethyl-carbamoyl-6-azaandrost-4-en-3-one] | – | –
4 | < 10 | < 10 | 10 to 100 | CC(Cc1ccccc1)NC(=O)C1CCC2C3CNC4=CC(=O)CCC4(C)C3CCC12C (stereo not drawn) [Compound 13, 17β-N-(α-Methyl)phenethyl-carbamoyl-6-azaandrost-4-en-3-one] | – | –
5 | < 10 | < 10 | > 100 | CCCCCCCCCCc1ccc(NC(=O)[C@H]2CC[C@H]3[C@@H]4CNC5=CC(=O)CC[C@]5(C)[C@H]4CC[C@]23C)cc1 [Compound 36, 17β-N-(4-Decyl)phenyl-carbamoyl-6-azaandrost-4-en-3-one] | – | –
6 | > 100 | < 10 | > 100 | C[C@]12CC[C@H]3[C@@H](CNC4=CC(=O)CC[C@@]43C)[C@@H]1CC[C@@H]2C(=O)Nc1ccc2c(c1)CCC2 [Compound 4, 17β-N-5-Indanylcarbamoyl-6-azaandrost-4-en-3-one] | – | –
7 | 10 to 100 | 10 to 100 | > 100 | C[C@]12CC[C@H]3[C@@H](CNC4=CC(=O)CC[C@@]43C)[C@@H]1CC[C@@H]2C(=O)NCCc1ccccn1 [Compound 20, 17β-N-2-(2-Pyridyl)ethyl-carbamoyl-6-azaandrost-4-en-3-one] | – | –
8 | 10 to 100 | < 10 | 10 to 100 | Cc1cc(C)c(NC(=O)[C@H]2CC[C@H]3[C@@H]4CNC5=CC(=O)CC[C@]5(C)[C@H]4CC[C@]23C)c(C)c1 [Compound 40, 17β-N-(2,4,6-Trimethyl)phenyl-carbamoyl-6-azaandrost-4-en-3-one] | – | –
9 | < 10 | < 10 | > 100 | CC(NC(=O)[C@H]1CC[C@H]2[C@@H]3CNC4=CC(=O)CC[C@]4(C)[C@H]3CC[C@]12C)c1ccccc1 (stereo partly drawn) [Compound 35, 17β-N-(1-Phenyl)ethyl-carbamoyl-6-azaandrost-4-en-3-one] | – | –
10 | < 10 | < 10 | 10 to 100 | CC(C)c1cccc(C(C)C)c1NC(=O)[C@H]1CC[C@H]2[C@@H]3CNC4=CC(=O)CC[C@]4(C)[C@H]3CC[C@]12C [Compound 14, 17β-N-(2,6-Di-i-propyl)phenyl-carbamoyl-6-azaandrost-4-en-3-one] | – | –
11 | < 10 | < 10 | 10 to 100 | C[C@]12CC[C@H]3[C@@H](CNC4=CC(=O)CC[C@@]43C)[C@@H]1CC[C@@H]2C(=O)NCc1ccc(F)cc1F [Compound 42, 17β-N-(2,4-Difluoro)benzyl-carbamoyl-6-azaandrost-4-en-3-one] | – | –
12 | > 100 | < 10 | 10 to 100 | C[C@]12CC[C@H]3[C@@H](CNC4=CC(=O)CC[C@@]43C)[C@@H]1CC[C@@H]2C(=O)Nc1cc(C(F)(F)F)ccc1Cl [Compound 44, 17β-N-(2-Chloro-5-trifluoromethyl)-phenyl-carbamoyl-6-azaandrost-4-en-3-one] | – | –
13 | 10 to 100 | < 10 | < 10 | Cc1cc(C(C)(C)C)cc(C)c1NC(=O)[C@H]1CC[C@H]2[C@@H]3CNC4=CC(=O)CC[C@]4(C)[C@H]3CC[C@]12C [Compound 48, 17β-N-(2,6-Dimethyl-4-t-butyl)phenyl-carbamoyl-6-azaandrost-4-en-3-one] | – | –
14 | < 10 | < 10 | 10 to 100 | C[C@]12CC[C@H]3[C@@H](CNC4=CC(=O)CC[C@@]43C)[C@@H]1CC[C@@H]2C(=O)Nc1ccccc1-c1ccccc1 [Compound 53, 17β-N-(2-Phenyl)phenyl-carbamoyl-6-azaandrost-4-en-3-one] | – | –
15 | 10 to 100 | < 10 | 10 to 100 | CC1(C)C2CCC(CNC(=O)[C@H]3CC[C@H]4[C@@H]5CNC6=CC(=O)CC[C@]6(C)[C@H]5CC[C@]34C)C1C2 (stereo partly drawn) [Compound 39, 17β-N-Myrantyl-carbamoyl-6-azaandrost-4-en-3-one] | – | –
16 | < 10 | < 10 | 10 to 100 | C[C@]12CC[C@H]3[C@@H](CNC4=CC(=O)CC[C@@]43C)[C@@H]1CC[C@@H]2C(=O)NC(c1ccc(Cl)cc1)c1ccc(Cl)cc1 [Compound 47] | – | –
17 | > 100 | < 10 | 10 to 100 | CC(C)c1cccc(C(C)C)c1NC(=O)[C@H]1CC[C@H]2[C@@H]3CNC4=CC(=O)C=C[C@]4(C)[C@H]3CC[C@]12C [Compound 93, 17β-N-(2,6-Di-i-propyl)phenyl-carbamoyl-6-azaandrost-1,4-dien-3-one] | – | –
18 | 10 to 100 | 10 to 100 | > 100 | CC(C)Oc1ccc(C(=O)[C@H]2CC[C@H]3[C@@H]4CNC5=CC(=O)CC[C@]5(C)[C@H]4CC[C@]23C)cc1 [Compound 33, 17β-(1-Oxo-1 (4-isopropoxyphenyl)methyl)-6-azaandrost-4-en-3-one] | – | –
19 | 10 to 100 | < 10 | > 100 | CC(NC(=O)[C@H]1CC[C@H]2[C@@H]3CNC4=CC(=O)CC[C@]4(C)[C@H]3CC[C@]12C)C(c1ccccc1)c1ccccc1 (stereo partly drawn) [Compound 45, 17β-N-(2,2-Diphenyl-1-methyl)ethyl-carbamoyl-6-azaandrost-4-en-3-one] | – | –
20 | 10 to 100 | 10 to 100 | > 100 | C[C@]12CC[C@H]3[C@@H](CNC4=CC(=O)CC[C@@]43C)[C@@H]1CC[C@@H]2C(=O)NCc1ccco1 [Compound 19, 17β-N-(2-Furanyl)methyl-carbamoyl-6-azaandrost-4-en-3-one] | – | –
21 | < 10 | < 10 | 10 to 100 | CC12CCC(=O)C=C1NCC1C2CCC2(C)C(C(=O)Nc3ccccc3C(F)(F)F)CCC12 (stereo not drawn) [Compound 9, 17β-N-(2-Trifluoromethyl)phenyl-carbamoyl-6-azaandrost-4-en-3-one] | – | –
22 | < 10 | < 10 | 10 to 100 | C[C@]12CC[C@H]3[C@@H](CNC4=CC(=O)CC[C@@]43C)[C@@H]1CC[C@@H]2C(=O)NCCC(c1ccccc1)c1ccccc1 [Compound 16, 17β-N-(3,3-Diphenyl)propyl-carbamoyl-6-azaandrost-4-en-3-one] | – | –
23 | < 10 | < 10 | 10 to 100 | Cc1ccc(CCNC(=O)C2CCC3C4CNC5=CC(=O)CCC5(C)C4CCC23C)cc1 (stereo not drawn) [Compound 12, 17β-N-(4-Methyl)phenethyl-carbamoyl-6-azaandrost-4-en-3-one] | – | –
24 | 10 to 100 | < 10 | < 10 | CC(C)CC(=O)OC[C@H]1CC[C@H]2[C@@H]3CNC4=CC(=O)CC[C@]4(C)[C@H]3CC[C@]12C [Compound 27, 17β-Hydroxymethyl-(3-methylbutyrate)-6-azaandrost-4-en-3-one] | – | –
25 | < 10 | < 10 | 10 to 100 | CC(C)(Cc1ccc(F)cc1)NC(=O)[C@H]1CC[C@H]2[C@@H]3CNC4=CC(=O)CC[C@]4(C)[C@H]3CC[C@]12C [Compound 32, 17β-N-(1,1-Dimethyl)-2-(4-fluorophenyl)ethyl-carbamoyl-6-azaandrost-4-en-3-one] | – | –

Row | Compound | IC50 [1] [nM] | IC50 [2] [nM] | IC50 [3] [nM] | IC50 [2, 4] [nM] | IC50 [3, 5] [nM]
26 | C[C@]12CC[C@H]3[C@@H](CNC4=CC(=O)CC[C@@]43C)[C@@H]1CC[C@@H]2C(=O)Nc1ccc2c(c1)OCCO2 [Compound 6, 17β-N-4-Benzodioxan-carbamoyl-6-azaandrost-4-en-3-one] | 10 to 100 | – | – | 10 to 100 | > 100
27 | 17β-N-2-(3-N-Methylpyrrole)ethyl-carbamoyl-6-azaandrost-4-en-3-one [Compound 29] | 10 to 100 | – | – | 10 to 100 | > 100
